Assay results as given in publication PMC7281506, “Bengamide Analogues Show A Potent Antitumor Activity against Colon Cancer Cells: A Preliminary Study” (Marine Drugs, 2020).
Read-outs that look alike come from different tables or passages of the source. Each block holds one compound with its values, some of them ahead of it.

How the values were obtained:
[1] = system: CCD18 normal colon fibroblast cell line; assay: Proliferation assay (Sulforhodamine B), CCD18; format: cell-based; details: Homo sapiens, CCD18, 72 h treatment, mean ± SD of triplicate samples
Method: (§1) The T84, SW480, HCT15, HT29 and MC38 colon cancer cell lines were selected to assay the bengamide effect. A normal colon fibroblast cell line (CCD18) was included in the analysis. In addition, a cell line of another tumor type (breast cancer) was studied (MCF7). All cell lines were grown in Dulbecco’s modified Eagle’s medium (DMEM) supplemented with fetal bovine serum (10%) and a mix of penicillin-streptomycin (1%) (Sigma-Aldrich, Madrid, Spain). Cell lines were maintained at 37 °C and 5% CO2 in a humidified incubator.
(§2) The different cell lines were seeded in 48-well plates at a cell density of 3 × 10^3 cells/well for MC38, 5 × 10^3 cells/well for T84, SW480, HCT15 and CCD18, 15 × 10^3 cells/well for HT29 and 4 × 10^3 cells/well for MCF7. After attaching to the well, the treatments, Ben I and Ben V (analogues 5 and 10, respectively), were added in a wide range of doses determined by the cell line from an initial stock of 0.3 mg/mL for Ben I and 6.9 mg/mL for Ben V, both dissolved in water. The treatments were maintained for 72 h. Elapsed this time, the cells were fixed with trichloroacetic acid at 10%, stained with Sulforhodamine B (Sigma-Aldrich, Madrid, Spain) and the dye was lifted with Trizma® (Sigma-Aldrich, Madrid, Spain) at 10% following a previously established protocol. Doxorubicin and 5-Fluorouracil were used as reference compounds in breast and colon cell lines, respectively.

[2] = system: T84 colon cancer cell line; assay: Proliferation assay (Sulforhodamine B), T84; format: cell-based; details: Homo sapiens; T84, 72 h treatment, mean ± SD of triplicate samples
Method: as §1, §2

[3] = system: SW480 colon cancer cell line; assay: Proliferation assay (Sulforhodamine B), SW480; format: cell-based; details: Homo sapiens; SW480, 72 h treatment, mean ± SD of triplicate samples
Method: as §1, §2

[4] = system: HCT15 resistant colon cancer cell line; assay: Proliferation assay (Sulforhodamine B), HCT15; format: cell-based; details: Homo sapiens, HCT-15; HCT15, 72 h treatment, mean ± SD of triplicate samples
Method: as §1, §2

[5] = system: HT29 colon cancer cell line; assay: Proliferation assay (Sulforhodamine B), HT29; format: cell-based; details: Homo sapiens, HT-29; HT29, 72 h treatment, mean ± SD of triplicate samples
Method: as §1, §2

[6] = system: MC38 mouse colon cancer cell line; assay: Proliferation assay (Sulforhodamine B), MC38; format: cell-based; details: MC-38, MC38, 72 h treatment, mean ± SD of triplicate samples
Method: as §1, §2

[7] = system: MCF7 breast cancer cell line; assay: Proliferation assay (Sulforhodamine B), MCF7; format: cell-based; details: Homo sapiens; MCF7, 72 h treatment, mean ± SD of triplicate samples
Method: as §1, §2

[8] = Hemolysis test using human erythrocytes; format: cell-based; details: human erythrocytes isolated from blood of healthy donors, 1 h at 37 °C, highest doses (range 0.01–40 µM), read-out: level of hemolysis
Method: (§3) To evaluate the effect of Ben I and Ben V compounds on blood cells, a hemolysis test using human erythrocytes and a toxicity test using WBC were carried out. Different blood cells (erythrocytes and WBC) were isolated from blood samples taken from healthy donors and exposed to a wide range of doses of both Ben I and Ben V compounds (0.01–40 µM) following our previously described protocol. Briefly, the erythrocytes were diluted 50 times their initial concentration in PBS, seeded in conical bottom 96-well plates and treated with the different treatments for 1 h at 37 °C under stirring. Following this, the plate was centrifuged, 100 µL of the supernatant was transferred to a new 96-well flat-bottom plate and the absorbance at 492 nm was determined. Erythrocytes treated with Triton X-100 to 20% were used as a positive control and as a negative control, erythrocytes treated with PBS were used. In the case of erythrocytes, the percentage of hemolysis (%HR) was calculated with the following formula: %HR=Abs(sample)−Abs(−control)/Abs(+control)−Abs(−control)×100.

human erythrocytes = assay: Hemolysis test using human erythrocytes; format: cell-based; details: light microscopy after treatment
Method: as §3

[9] = Toxicity test in white blood cells (CCK-8); format: cell-based; details: human; WBC, 1 and 12 h of exposure, all doses tested (0.01–40 µM)
Method: as §3, with “Erythrocytes treated with Triton X-100 to 20% were used as a positive control and as a negative control, erythrocytes treated with PBS were used.” left out
As for the WBCs, they were seeded in flat-bottom 96-well plates in RPMI-1640 medium supplemented with FBS (10%) and a mixture of antibiotic (1%) at a density of 2 × 10^4 cells/well. […] The CCK-8 reagent was added to each well and after 3 h of incubation the absorbance was measured at 450 and 620 nm to determine the viability according to the manufacturer.

T84 cells = assay: Cell cycle assay (PI, flow cytometry), T84; format: cell-based, human; details: T84, 48 h; for G2/M phase change vs control: IC25 and IC50
Method: (§4) To assess the effect of treatments in the cell cycle, a cancer cell line (T84) and a normal cell line (CCD18) were seeded in 6-well plates at a density of 1.5 × 10^5 and 1 × 10^5 cells/well, respectively. […] In addition, untreated cells were used as a negative control and cells treated with 5-FU at its IC50 at 48 h as a positive control. After this time, the culture medium of each treatment was collected in a clean cytometry tube, the wells were washed with PBS at 4 °C and this wash was added to the previous tube. The cells were detached with a trypsin-EDTA mixture and also added to the tube. Next, the tubes were centrifuged at 3500 rpm for 3 min, the supernatant was discarded, and the pellet was resuspended in 100 µL of PBS. After this, 900 µL of 70% cold EtOH was added to each tube while the tubes were vortexed, then the tubes were placed on ice and incubated at 4 °C for 10 min. After this time, two washes were carried out with PBS to remove ethanol and the pellets were resuspended in 250 µL of PBS, to which 250 µL of DNA extraction solution was added (192 mL of 0.2 M Na2HPO4 + 8 mL of 0.1 M citric acid, pH = 7.8). The samples were incubated at 37 °C for 10 min, centrifuged and the supernatant discarded. Finally, 250 µL of propidium iodide (PI)/RNAse (ImmunoStep, Salamanca, Spain) solution was added and the samples were incubated for 10 min at 37 °C in the dark. Thereafter, the samples were analyzed by FAC Scan on a Becton Dickinson analyzer cytometer (Becton Dickinson, Franklin Lakes, NJ, USA).

CCD18 normal colon cells = assay: Cell cycle assay (PI, flow cytometry), CCD18; format: cell-based, human; details: CCD18, 48 h; for SubG1 and S phase change vs control: doses of IC50
Method: as §4

[10] = system: MDA-MB-435 human breast cancer cells; details: cited from earlier work
[11] = clinical candidate; cited from earlier work
cancer cell line A549 = system: cancer cell line A549; set-up: method as in PMID 26514647; details: A549, Figure 1; read-out: IC50 (cytotoxicity); cited from earlier work
[12] = read-out: IC50 (cytotoxicity), MDA-MB-435, Figure 1

IC50 [2]: 360 ± 30 nM
IC50 [3]: 590 ± 70 nM
IC50 [4]: 1900 ± 150 nM
IC50 [5]: 1020 ± 190 nM
IC50 [6]: 1600 ± 130 nM
IC50 [7]: 490 ± 50 nM
Compound: CO[C@@H](C(=O)N[C@H]1CCCCNC1=O)[C@H](O)[C@@H](O)[C@H](O)/C=C/C(C)(C)C [Ben I]
IC50 [1]: 4700 ± 280 nM
hemolysis at 1 h [8]: ~2%
erythrocytes agglutination or modification of morphology (human erythrocytes): none of these compounds caused erythrocytes agglutination or modification of their morphology
viability [9]: ~100%
SubG1 phase change vs control (T84 cells): No differences were observed with the control
G2/M phase change vs control (T84 cells): statistically significant (p < 0.05) G2/M phase increase
G2/M phase change vs control (CCD18 normal colon cells): slight increase
SubG1 and S phase change vs control (CCD18 normal colon cells): marked increase
IC50 [10, 12]: 630 nM

Compound: CO[C@@H](C(=O)N[C@H]1CCCCN(CCOC(=O)C2CCCCC2)C1=O)[C@H](O)[C@@H](O)[C@H](O)/C=C/C(C)(C)C [Ben III]
IC50 [10, 12]: 17 nM

Compound: CO[C@@H](C(=O)N[C@H]1CC[C@@H](OC(=O)C2CCCCC2)CNC1=O)[C@H](O)[C@@H](O)[C@H](O)/C=C/C(C)(C)C [LAF389]
IC50 [10, 12]: 40 nM
pharmacokinetic properties [11]: poor pharmacokinetic properties

IC50 [7]: 40 ± 10 nM
Compound: COc1cccc2c1C(=O)c1c(O)c3c(c(O)c1C2=O)C[C@@](O)(C(=O)CO)C[C@@H]3O[C@H]1C[C@H](N)[C@H](O)[C@H](C)O1 [doxorubicin, reference compound]

Compound: CCCCCCCCCCCCCC(=O)O[C@H]1CC[C@H](NC(=O)[C@H](OC)[C@H](O)[C@@H](O)[C@H](O)/C=C/C(C)C)C(=O)NC1 [Bengamide A, bengamide A]
IC50 [10, 12]: 1 nM

Compound: CO[C@@H](C(=O)N[C@H]1CCCCNC1=O)[C@H](O)[C@@H](O)[C@H](O)/C=C/C(C)C [Bengamide E]
IC50 [10, 12]: 3300 nM

Compound: CCCCCCCCCCCCCC(=O)O[C@H]1CC[C@H](NC(=O)[C@H](OC)[C@H](O)[C@@H](O)[C@H](O)/C=C/C(C)C)C(=O)N(C)C1 [Bengamide B]
IC50 [10, 12]: 2.4 nM

IC50 [2]: 70 ± 20 nM
IC50 [3]: 80 nM
IC50 [4]: 2440 ± 250 nM
IC50 [5]: 660 ± 180 nM
IC50 [6]: 6510 ± 1120 nM
IC50 [7]: 130 ± 10 nM
Compound: CO[C@@H](C(=O)N[C@@H](C)C(=O)NCCCOC(=O)C1CCCCC1)[C@H](O)[C@@H](O)[C@H](O)/C=C/C(C)(C)C [Ben V]
IC50 [1]: 5080 ± 390 nM
hemolysis at 1 h [8]: ~2%
erythrocytes agglutination or modification of morphology (human erythrocytes): none of these compounds caused erythrocytes agglutination or modification of their morphology
viability [9]: ~100%
G0/G1 and S phases change vs control (T84 cells): slight reduction
SubG1 phase change vs control (T84 cells): No differences were observed with the control
G2/M phase change vs control (T84 cells): this increase was much greater
G2/M phase change vs control (CCD18 normal colon cells): slight increase
SubG1 and S phase change vs control (CCD18 normal colon cells): marked increase
IC50 ([10]; MDA-MB-435 human breast cancer cells): 4 nM

IC50 [2]: 2680 ± 160 nM
IC50 [3]: 6350 ± 540 nM
IC50 [4]: 6580 ± 350 nM
IC50 [5]: 6140 ± 940 nM
IC50 [6]: 330 ± 10 nM
Compound: O=c1[nH]cc(F)c(=O)[nH]1 [5-fluorouracil, reference compound]
IC50 [1]: 7350 ± 410 nM

Compound: CO[C@@H](C(=O)N[C@H]1CCc2ccccc2NC1=O)[C@H](O)[C@@H](O)[C@H](O)/C=C/C(C)(C)C [Ben IV]
IC50 (cancer cell line A549): 9 nM

Compound: Bengamide F
IC50 [10, 12]: 2900 nM

Compound: CO[C@@H](C(=O)N[C@H]1CCCCNC1=O)[C@H](O)[C@@H](O)[C@H](O)/C=C/C1CCCC1 [Ben II]
IC50 [10, 12]: 440 nM
